“And” between values parts separate entries of the source, which are not always exact repeats. Equal entries are not always repeated. Inconclusive results and toxic doses are left out. Rule as the data show it: active = T/C of 150% or more; inactive = T/C below 125%.
System: L1210 leukemia ip in BDF1 mice, survival T/C
Assay: NCI In Vivo Anticancer Drug Screen. Data for tumor model L1210 Leukemia (intraperitoneal) in B6D2F1 (BDF1) mice
Conditions: endpoint: mean survival time, higher = longer survival
Outline: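 Transplanted-tumor mice were given test agent; controls received vehicle only. Survival readings from the two groups were divided (treated over control).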

[1] = dose: 50.0 mg/kg/injection, schedule: Q01DX009 (ip), vehicle: Klucel (hydroxypropylcellulose) (HPC)
[2] = dose: 100.0 mg/kg/injection, schedule: Q01DX009 (ip), vehicle: Klucel (hydroxypropylcellulose) (HPC)
[3] = dose: 100.0 mg/kg/injection, schedule: Q04DX003 (ip), vehicle: Klucel (hydroxypropylcellulose) (HPC)
[4] = dose: 200.0 mg/kg/injection, schedule: Q01DX009 (ip), vehicle: Klucel (hydroxypropylcellulose) (HPC)
[5] = dose: 200.0 mg/kg/injection, schedule: Q04DX003 (ip), vehicle: Klucel (hydroxypropylcellulose) (HPC)
[6] = dose: 25.0 mg/kg/injection, schedule: Q04DX003 (ip), vehicle: Klucel (hydroxypropylcellulose) (HPC)
[7] = dose: 50.0 mg/kg/injection, schedule: Q04DX003 (ip), vehicle: Klucel (hydroxypropylcellulose) (HPC)
[8] = dose: 100.0 mg/kg/injection, schedule: Q01DX009 (ip), vehicle: saline
[9] = dose: 100.0 mg/kg/injection, schedule: Q01DX001 (ip), vehicle: saline
[10] = dose: 100.0 mg/kg/injection, schedule: Q04DX003 (ip), vehicle: other
[11] = dose: 200.0 mg/kg/injection, schedule: Q04DX003 (ip), vehicle: other
[12] = dose: 100.0 mg/kg/injection, schedule: Q01DX009 (ip), vehicle: other
[13] = dose: 200.0 mg/kg/injection, schedule: Q01DX009 (ip), vehicle: other
[14] = dose: 400.0 mg/kg/injection, schedule: Q01DX009 (ip), vehicle: other
[15] = dose: 400.0 mg/kg/injection, schedule: Q04DX003 (ip), vehicle: other
[16] = dose: 100.0 mg/kg/injection, schedule: Q01DX001 (ip), vehicle: carboxymethylcellulose (CMC)
[17] = dose: 200.0 mg/kg/injection, schedule: Q01DX001 (ip), vehicle: carboxymethylcellulose (CMC)
[18] = dose: 400.0 mg/kg/injection, schedule: Q01DX001 (ip), vehicle: carboxymethylcellulose (CMC)
[19] = dose: 400.0 mg/kg/injection, schedule: Q04DX003 (ip), vehicle: Klucel (hydroxypropylcellulose) (HPC)
[20] = dose: 100.0 mg/kg/injection, schedule: Q04DX003 (ip), vehicle: saline
[21] = dose: 100.0 mg/kg/injection, schedule: Q01DX009 (ip), vehicle: saline with Tween-80
[22] = dose: 200.0 mg/kg/injection, schedule: Q01DX009 (ip), vehicle: saline with Tween-80
[23] = dose: 200.0 mg/kg/injection, schedule: Q01DX001 (ip), vehicle: saline
[24] = dose: 400.0 mg/kg/injection, schedule: Q01DX001 (ip), vehicle: saline

Measured: T/C

CC(C)C(CCN1CCCC1)(C(N)=O)c1cccc2ccccc12 (configuration not stated)
inactive: [1] 112 % of control | [2] 105 % of control | [3] 98 % of control | [4] 112 % of control | [5] 95 % of control

N=C(N)SCCCSC(=N)N
inactive: [6] 95 % of control | [7] 97 % of control | [8] 102 % of control | [3] 97 % of control and 98 % of control

COc1ccc(N=Cc2ccc(C=Nc3ccc(OC)cc3)cc2)cc1
inactive: [6] 96 % of control | [1] 90 % of control | [7] 98 % of control | [2] 97 % of control | [3] 96 % of control | [4] 88 % of control

CC(C)C(NC(=O)OC(C)(C)C)C(=O)O (configuration not stated)
inactive: dose: 12.5 mg/kg/injection, schedule: Q01DX009 (ip), vehicle: alcohol 106 % of control | dose: 25.0 mg/kg/injection, schedule: Q01DX009 (ip), vehicle: alcohol 109 % of control | dose: 25.0 mg/kg/injection, schedule: Q04DX003 (ip), vehicle: other 107 % of control | dose: 50.0 mg/kg/injection, schedule: Q01DX009 (ip), vehicle: alcohol 96 % of control | dose: 50.0 mg/kg/injection, schedule: Q04DX003 (ip), vehicle: other 93 % of control and 108 % of control | [9] 103 % of control | dose: 100.0 mg/kg/injection, schedule: Q01DX009 (ip), vehicle: alcohol 104 % of control | [10] 94 % of control and 96 % of control | dose: 200.0 mg/kg/injection, schedule: Q01DX009 (ip), vehicle: alcohol 107 % of control | [11] 101 % of control and 103 % of control

O=C(COc1ccc(Cl)cc1C(=O)O)NCc1ccc([N+](=O)[O-])cc1
inactive: dose: 75.0 mg/kg/injection, schedule: Q01DX009 (ip), vehicle: Klucel (hydroxypropylcellulose) (HPC) 106 % of control | dose: 150.0 mg/kg/injection, schedule: Q01DX009 (ip), vehicle: Klucel (hydroxypropylcellulose) (HPC) 104 % of control | dose: 300.0 mg/kg/injection, schedule: Q01DX009 (ip), vehicle: Klucel (hydroxypropylcellulose) (HPC) 101 % of control

COc1cc([N+](=O)[O-])ccc1C
inactive: [12] 111 % of control | [10] 97 % of control | [13] 98 % of control | [11] 90 % of control | [14] 104 % of control | [15] 88 % of control

CCOP(=O)(Nc1ccc2c(c1)Cc1cc([N+](=O)[O-])ccc1-2)OCC
inactive: dose: 50.0 mg/kg/injection, schedule: Q01DX001 (ip), vehicle: carboxymethylcellulose (CMC) 97 % of control | [16] 94 % of control | [17] 92 % of control | [18] 94 % of control

CS(=O)(=O)OCCN(CCOS(C)(=O)=O)c1ccccc1
inactive: dose: 100.0 mg/kg/injection, schedule: Q01DX001 (ip), vehicle: other 100 % of control

CCOC(=O)CCN(CCC(=O)OCC)C1CC1c1ccccc1 (configuration not stated)
inactive: [3] 100 % of control | [5] 95 % of control | [19] 100 % of control

O=C1Nc2nc(=O)nc3[nH]c(=O)nc(n23)N1
inactive: dose: 25.0 mg/kg/injection, schedule: Q01DX009 (ip), vehicle: saline 106 % of control | dose: 50.0 mg/kg/injection, schedule: Q01DX009 (ip), vehicle: saline 98 % of control | dose: 50.0 mg/kg/injection, schedule: Q04DX003 (ip), vehicle: saline 110 % of control | [8] 98 % of control | [20] 103 % of control

Cc1cn(C2CCCO2)c(=O)nc1NO (configuration not stated)
inactive: [16] 104 % of control | [17] 95 % of control | [18] 98 % of control

CCC(=O)N/N=C(\N)N[N+](=O)[O-]
inactive: dose: 87.5 mg/kg/injection, schedule: Q04DX003 (ip), vehicle: Klucel (hydroxypropylcellulose) (HPC) 102 % of control | dose: 175.0 mg/kg/injection, schedule: Q04DX003 (ip), vehicle: Klucel (hydroxypropylcellulose) (HPC) 105 % of control | dose: 350.0 mg/kg/injection, schedule: Q04DX003 (ip), vehicle: Klucel (hydroxypropylcellulose) (HPC) 103 % of control

Cc1ccc(S(=O)(=O)Nc2ccc(Nc3ccccc3)cc2)cc1
inactive: dose: 50.0 mg/kg/injection, schedule: Q01DX009 (ip), vehicle: saline with Tween-80 94 % of control | [21] 94 % of control | [22] 102 % of control

COc1c(Cl)cc(Cl)cc1Cl
inactive: dose: 100.0 mg/kg/injection, schedule: Q01DX009 (ip), vehicle: saline sonified 96 % of control | [3] 101 % of control | dose: 200.0 mg/kg/injection, schedule: Q01DX009 (ip), vehicle: saline sonified 107 % of control | [5] 98 % of control | dose: 400.0 mg/kg/injection, schedule: Q01DX009 (ip), vehicle: saline sonified 97 % of control | [19] 104 % of control

CC1(C)OC(=O)C(=Cc2c(Cl)cccc2Cl)C(=O)O1
inactive: [9] 98 % of control | [21] 104 % of control | [20] 99 % of control | [23] 95 % of control | [22] 92 % of control | dose: 200.0 mg/kg/injection, schedule: Q04DX003 (ip), vehicle: saline 94 % of control | [24] 96 % of control | dose: 400.0 mg/kg/injection, schedule: Q04DX003 (ip), vehicle: saline 97 % of control

CCOCc1cccc(C(=O)NCCCc2c(-c3ccccc3)nc(N)[nH]c2=O)c1
inactive: dose: 36.2 mg/kg/injection, schedule: Q01DX001 (ip), vehicle: Klucel (hydroxypropylcellulose) (HPC) 94 % of control | dose: 62.5 mg/kg/injection, schedule: Q01DX001 (ip), vehicle: Klucel (hydroxypropylcellulose) (HPC) 105 % of control | dose: 125.0 mg/kg/injection, schedule: Q01DX001 (ip), vehicle: Klucel (hydroxypropylcellulose) (HPC) 98 % of control

O=C(Nc1ccc(Cl)cc1)C(=O)Nc1ccc(Cl)cc1
inactive: dose: 100.0 mg/kg/injection, schedule: Q04DX002 (ip), vehicle: gum acacia 107 % of control | dose: 200.0 mg/kg/injection, schedule: Q04DX002 (ip), vehicle: gum acacia 89 % of control | dose: 400.0 mg/kg/injection, schedule: Q04DX002 (ip), vehicle: gum acacia 93 % of control

CCN(CC)CCSSCCN(CC)CC.[Cl][Mn][Cl]
inactive: [9] 103 % of control

O=C(Cl)Oc1cccc2ccccc12
inactive: dose: 50.0 mg/kg/injection, schedule: Q01DX001 (ip), vehicle: saline 108 % of control | [9] 113 % of control | [23] 104 % of control | [24] 98 % of control

CC(C(=O)O)C(NC(=O)OCc1ccccc1)C(=O)O (configuration not stated)
inactive: [12] 93 % of control | [10] 99 % of control | [13] 91 % of control | [11] 99 % of control | [14] 98 % of control | [15] 98 % of control

Reference: PubChem BioAssay AID248 (DTP/NCI, 2004)
